Results on 3 compounds are retold here after US20230295575A1, “METHODS OF INCREASING MATURATION OF HEART, PANCREATIC BETA-CELLS, AND NEURONS” (Yissum Research Development Company of the Hebrew …, priority 2020, published 2023).

The conditions of data set [1]: 3 week-old rats; cited from earlier work.
The conditions of data set [2]: obese adults; cited from earlier work.
The conditions of data set [3]: healthy individuals; cited from earlier work.
The target of another data set is T1, PPARα (Homo sapiens, UniProt Q07869).
T1 sequence (Q07869 1-468): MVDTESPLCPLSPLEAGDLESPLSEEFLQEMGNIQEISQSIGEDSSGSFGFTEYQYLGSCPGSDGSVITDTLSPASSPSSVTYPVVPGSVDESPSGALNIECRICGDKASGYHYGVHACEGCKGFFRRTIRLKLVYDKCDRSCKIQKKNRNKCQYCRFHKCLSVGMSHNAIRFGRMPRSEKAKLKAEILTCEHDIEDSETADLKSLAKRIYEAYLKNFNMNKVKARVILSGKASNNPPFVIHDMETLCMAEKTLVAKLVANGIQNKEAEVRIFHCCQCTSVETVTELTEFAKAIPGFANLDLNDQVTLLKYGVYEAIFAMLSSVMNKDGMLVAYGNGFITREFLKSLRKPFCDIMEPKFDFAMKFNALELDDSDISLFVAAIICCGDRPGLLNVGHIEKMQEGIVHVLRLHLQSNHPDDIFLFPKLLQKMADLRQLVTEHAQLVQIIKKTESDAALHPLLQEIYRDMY
As to conditions: cited from earlier work.

The subject of data set [4] is human embryonic stem cells. As to conditions: hESC on mouse fibroblast feeder layers; cited from earlier work.
The next data set concerns UN1 iPSC. The experiment in a line: Fatty acid supplementation at different steps of 4-step cardiac differentiation. As to conditions: preliminary studies. It is filed as cell-based, human. As for the experimental part: FIGS. 3A-B. Addition of OA+9CLA during differentiation impairs differentiation. (A) Light Microscopy of UN1 iPSC during 4-step cardiac differentiation (methods) supplemented with 100 µM oleic acid and 50 µM 9CLA at different steps. […] (B) Quantification of portion of complete well death (left) and portion of beating wells resulted by supplementation with 100 µM oleic acid and 50 µM 9CLA at different steps of the 4-step cardiac differentiation (n=24; methods).
(§1) Cells were seeded on Matrigel in mTeSR-1 medium and allowed to reach 80-90% confluence. Cardiac differentiation was conducted as previously described (Burridge, P. W. et al. Chemically defined generation of human cardiomyocytes. Nat Methods 11, 855-860, 2014). Briefly, a basal medium named CDM3 was used (RPMI-1640, 500 µg/mL recombinant human serum albumin, 213 µg/mL L-ascorbic acid 2-phosphate and 1% penicillin/streptomycin). At day zero of differentiation, the medium was replaced with CDM3 supplemented with 6 µmol/L CHIR99021 (Stemgent) for two days. At day two of the differentiation the culture-medium was switched to CDM3 medium supplemented with 2 µM Wnt-C59 (Selleckchem), for additional two days. From day four onward, cells were cultured with RPMI supplemented with B27-I (B27 supplement without Insulin; Gibco, USA). […]

For data set [5] the following is noted: human subjects; cited from earlier work.
A further data set has as its system human muscle cells. The conditions noted are these: cited from earlier work.
A further data set deals with adipocytes. As to conditions: short term exposure; cited from earlier work.
Data set [6] has as its system stem cell-derived cardiomyocytes. The experiment in a line: Seahorse MitoStress analysis of stem cell-derived cardiomyocytes. The class given is cell-based, human. How it is done: as §1
Mitochondrial function was measured using the Seahorse XF Cell Mito Stress Test Kit according to the manufacturer’s instructions (Agilent, Santa Clara, CA). […] The basal oxygen consumption rate (OCR) was measured for 30 minutes and then injected 1 µM oligomycin, a mitochondrial complex V inhibitor that blocks oxidative phosphorylation. […]

The subject of data set [7] is pluripotent stem cells derived cardiomyocytes. The experiment in a line: Immunofluorescence / cell shape analysis of stem cell-derived cardiomyocytes. It is filed as cell-based, human. The conditions noted are these: OA+9CLA+GW9662. How it is done:
Cultured cells were fixed using 4% paraformaldehyde for 15 minutes at room temperature. Cells were then permeabilized in blocking solution (2% bovine serum albumin (BSA) and 0.25% Triton X-100 in PBS) for one hour at room temperature and incubated with primary antibodies (Table 13 below) for an additional hour. Following washes, cells were incubated with secondary antibodies (Table 14 below) for 1 hour at room temperature in blocking solution, washed twice in PBS and counterstained with 1 µg/ml Hoechest 33258 (Sigma Aldrich, USA) for 5 minutes. Imaging was performed on a Zeiss LSM 700 confocal microscope. Staining of actin was carried out simultaneously with secondary antibody incubation step by adding a 1:100 of Rhodamine-Phalloidin solution. Microscopic single cell and mitochondrial shape analysis was carried out using the CellProfiler software. Mitochondrial elongation was scored from 0 to 1, where 0 corresponds to a circle and 1 to a rectangle.
Cells were seeded on Matrigel in mTeSR-1 medium and allowed to reach 80-90% confluence. Cardiac differentiation was conducted as previously described (Burridge, P. W. et al. Chemically defined generation of human cardiomyocytes. Nat Methods 11, 855-860, 2014). Briefly, a basal medium named CDM3 was used (RPMI-1640, 500 µg/mL recombinant human serum albumin, 213 µg/mL L-ascorbic acid 2-phosphate and 1% penicillin/streptomycin). […]

Regarding `CCCCCC/C=C/C=C\CCCCCCCC(=O)O` [9CLA, 9Z,11E-octadeca-9,11-dienoic acid], the effect of treatment entry in data set [1] was “did not have a beneficial effect”. For the same compound, the “insulin sensitivity and lipid peroxidation” value in data set [2] is given as “increasing”. Also, the “low density lipoproteins (LDL)” value in data set [3] is “decreasing”. Besides, the “activity at PPARα” value on PPARα is “agonist”.

As to conjugated linoleic acid [CLA], the “decrease of differentiation of stem cell colonies” value in data set [4] is on record as 20%. Further, in the data set on UN1 iPSC, the “outcome of addition during cardiomyocyte differentiation” value was “immature fibroblast-like cells that did not start beating” and the “outcome of addition on terminally differentiated beating cardiomyocytes” value is listed as “mature cardiomyocytes”. In addition, the “effect on endothelial function” value in [5] was “negative effect”. Moreover, the myogenic gene expression entry in the data set on human muscle cells is reported as “suppressed myogenic gene expression”. In addition, in the data set on adipocytes, the “differentiation of mature adipocytes” value is “delayed the differentiation of mature adipocytes”.

Take `O=C(Nc1ccccc1)c1cc([N+](=O)[O-])ccc1Cl` [GW9662]: the “effect of GW9662 on the effect of postnatal lipids, in all cases” value in data set [6] (all readouts (respiration, glycolysis, cell area, gene expression), 10 µM GW9662) was “reversed”. For the same compound, the “effect of GW9662 on fatty acid-induced respiration increase and glycolysis decrease” value in data set [6] (short-term exposure to GW9662 with OA+9CLA) is reported as “reversed both effects”. For the same compound, the “effect of PPARα/γ inhibition on OA+9CLA-induced cell area increase” value in data set [7] is reported as “reversed”.
